Test results taken from publication PMC6471201, “Discovery of Indoleamine 2,3-Dioxygenase 1 (IDO-1) Inhibitors Based on Ortho-Naphthaquinone-Containing Natural Product” (Molecules, 2019).

Legend:
hIDO-1 [1] = biological target: T1, hIDO-1 (Homo sapiens, UniProt P14902); test: Cell-based assay of IDO-1 activity in HEK 293 cells transfected with pcDNA3.1-hIDO-1; design: expressed in transfected cells; host or cells: HEK 293; conditions: HEK 293-hIDO-1 cells, 12-h incubation; mean ± SE of two independent experiments; read-out: Cellular IC50
hIDO-1 [2] = biological target: T1, hIDO-1; test: hIDO-1 enzymatic assay; type: biochemical; conditions: mean ± SE of two independent experiments; for IC50: rhIDO-1, L-tryptophan substrate, 37 °C 30 min; for inhibition at 20 µM: 20 µM compound, read-out: Inhibitory Rate at 20 µM (enzymatic)
IDO-1 = tested on: IDO-1; design: method as in PMID 30108982; conditions: known inhibitors, Figure 1; cited from earlier work

T1 sequence (P14902 whole entry): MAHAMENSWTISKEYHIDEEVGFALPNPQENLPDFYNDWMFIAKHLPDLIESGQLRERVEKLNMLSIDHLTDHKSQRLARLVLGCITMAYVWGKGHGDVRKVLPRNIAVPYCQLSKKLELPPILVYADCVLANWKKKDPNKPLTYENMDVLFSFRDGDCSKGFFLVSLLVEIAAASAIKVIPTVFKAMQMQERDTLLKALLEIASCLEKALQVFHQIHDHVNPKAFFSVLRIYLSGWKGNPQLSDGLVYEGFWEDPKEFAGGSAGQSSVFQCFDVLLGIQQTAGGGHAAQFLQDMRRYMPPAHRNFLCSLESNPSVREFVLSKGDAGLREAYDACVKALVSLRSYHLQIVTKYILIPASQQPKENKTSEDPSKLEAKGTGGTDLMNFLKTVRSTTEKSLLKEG

| Structure (SMILES) | IC50 (hIDO-1 [2]) [µM] | inhibition at 20 µM (hIDO-1 [2]) [%] | other results |
| --- | --- | --- | --- |
| CC1(C)C(=O)C=Cc2c1ccc1c2C(=O)C(=O)c2c(CO)coc2-1 [Compound 12, 1-(hydroxymethyl)-6,6-dimethylphenanthro[1,2-b]furan-7,10,11(6H)-trione] | 0.37 ± 0.02 | – | IC50 (hIDO-1 [1]): 3.85 ± 0.86 µM |
| CC1(C)C=CC(=O)c2c1ccc1c2C(=O)C(=O)c2c(CO)coc2-1 [Compound 15, 1-(hydroxymethyl)-6,6-dimethylphenanthro[1,2-b]furan-9,10,11(6H)-trione] | ~20 | 68 ± 8.6 | – |
| Cc1coc2c1C(=O)C(=O)c1c-2ccc2c1C(OC(=O)c1cccs1)CCC2(C)C (centres unmarked) [Compound 7j] | – | 60.4 ± 3.9 | – |
| Cc1cccc2c3c(ccc12)C1=C(C(=O)C3=O)C(C)CO1 (centres unmarked) [Compound 4] | – | – | IC50 (IDO-1): 1.3 µM |
| CCC(=O)OC1CCC(C)(C)c2ccc3c(c21)C(=O)C(=O)c1c-3oc(-c2ccccc2)c1C (centres unmarked) [Compound 7d] | – | 21.5 ± 1.1 | – |
| Cc1coc2c1C(=O)C(=O)c1c-2ccc2c1C(OC(=O)CO)CCC2(C)C (centres unmarked) [Compound 7f] | 2.74 ± 0.1 | – | – |
| CCC(=O)OC1CCC(C)(C)c2ccc3c(c21)C(=O)C(=O)c1c(C)coc1-3 (centres unmarked) [Compound 7b] | 4.72 ± 0.3 | – | – |
| Cc1coc2c1C(=O)C(=O)c1c-2ccc2c1C=CC(=O)C2(C)C [Compound 11, 1,6,6-trimethylphenanthro[1,2-b]furan-7,10,11(6H)-trione] | 0.84 ± 0.26 | – | melting point: 261.2 to 262.8 °C; IC50 (hIDO-1 [1]): > 10 µM |
| Cc1coc2c1C(=O)C(=O)c1c-2ccc2c1C=CCC2(C)C [Compound 9, 1,6,6-trimethyl-6,7-dihydrophenanthro[1,2-b]furan-10,11-dione] | – | 61.2 ± 2.1 | IC50 (hIDO-1 [1]): > 10 µM; IC50 (IDO-1): 4.68 µM |
| Cc1coc2c1C(=O)C(=O)c1c-2ccc2c1C=CC(O)C2(C)C (centres unmarked) [Compound 10, 7-hydroxy-1,6,6-trimethyl-6,7-dihydrophenanthro[1,2-b]furan-10,11-dione] | 3.1 ± 1.02 | – | melting point: 185.2 to 188.5 °C; IC50 (hIDO-1 [1]): > 10 µM |
| Cc1c(-c2c(C)c(O)c3ccccc3c2O)oc2c1C(=O)C(=O)c1c-2ccc2c1CCCC2(C)C [Compound 5] | – | – | IC50 (IDO-1): 4.1 µM |
| Cc1coc2c1C(=O)C(=O)c1c-2ccc2c1C(OC(=O)C1CC1)CCC2(C)C (centres unmarked) [Compound 7g] | 7.05 ± 2.46 | – | – |
| CCOC(=O)/C=C/C(=O)OC1CCC(C)(C)c2ccc3c(c21)C(=O)C(=O)c1c(C)coc1-3 (centres unmarked) [Compound 7e] | 7.47 ± 3.58 | – | – |
| Cc1coc2c1C(=O)C(=O)c1c-2ccc2c1C(OC(=O)c1ccoc1)CCC2(C)C (centres unmarked) [Compound 7k] | 4.6 ± 2.81 | – | – |
| Cc1coc2c1C(=O)C(=O)c1c-2ccc2c1C(OC(=O)C1CCCCC1)CCC2(C)C (centres unmarked) [Compound 7h] | – | 48 ± 3.2 | – |
| Cc1coc2c1C(=O)C(=O)c1c-2ccc2c1C(=O)C=CC2(C)C [Compound 14, 1,6,6-trimethylphenanthro[1,2-b]furan-9,10,11(6H)-trione] | ~20 | 52.7 ± 2.5 | melting point: 158.3 to 160.8 °C; IC50 (hIDO-1 [1]): > 10 µM |
| Cc1coc2c1C(=O)C(=O)c1c-2ccc2c1C(OC(=O)c1cnccn1)CCC2(C)C (centres unmarked) [Compound 7m] | 4.96 ± 2.02 | – | – |
| CCC(=O)OC1CCC(C)(C)c2ccc3c(c21)C(=O)C(=O)c1c-3oc(-c2ccsc2)c1C (centres unmarked) [Compound 7c] | – | 29.3 ± 2.2 | – |
| Cc1coc2c1C(=O)C(=O)c1c-2ccc2c1C(O)CCC2(C)C (centres unmarked) [Compound 8] | 2.83 ± 0.12 | – | – |
| Cc1coc2c1C(=O)C(=O)c1c-2ccc2c1CCCC2(C)C [Compound 6, Tan-IIA, reference compound] | > 20 | 23.1 ± 1.6 | – |
| Cc1coc2c1C(=O)C(=O)c1c-2ccc2c1C(OC(=O)c1ccccc1)CCC2(C)C (centres unmarked) [Compound 7i] | – | 54.5 ± 2.3 | – |
| CC(=O)OC1CCC(C)(C)c2ccc3c(c21)C(=O)C(=O)c1c(C)coc1-3 (centres unmarked) [Compound 7a] | 3.72 ± 0.45 | – | – |
| Cc1coc2c1C(=O)C(=O)c1c-2ccc2c1C(OC(=O)c1nccs1)CCC2(C)C (centres unmarked) [Compound 7l] | 5.71 ± 0.47 | – | – |
